According to US9567367B2, “Synthetic peptides for treatment of bacterial infections” (priority 2012, dated 2017):
Where two headings read alike, the source gives them in different places. Square brackets hold non-standard residues; d marks the D form. Ends that are not written are not given here.

How the values were obtained:
polymicrobial infection = test: Cecal ligation and puncture (CLP) polymicrobial infection, survival; type: in vivo, mice; settings: moxifloxacin alone, high dose (LD90) at 12 hours post CLP
E. coli strain 018:K1 = test: E. coli peritonitis, survival; type: in vivo, BALB/c mice
S. pyogenes = test system: S. pyogenes; design: species or system BALB/c mice; settings: mouse, in vivo
Streptococcus pneumoniae = type: in vivo, BALB/c mice; settings: ceftriaxone alone 1 mg/kg i.p. (suboptimal) at 24 hours post infection
Experimental: Treatment with the peptide D-Ala-p2TA was adjunct to antibiotic treatment, and was given at a delayed time point, when the infection was already established.
When the animals are treated with ceftriaxone alone, administered intraperitoneal (i.p.) at a suboptimal dose of LD25 (1 mg/kg), given at 24 hours after the infection, survival rates increased to 20%. However, when the peptide D-Ala-p2TA (at 5 mg/kg) was given in combination with the antibiotics, 24 hours post infection, substantial increase in survival, to 50%, was detected (see FIG. 17).
The correlation between survival benefit and different doses of the peptide D-Ala-p2TA was investigated when the S. pneumoniae infected animals (n=10) received a combination of a fixed dose of antibiotics (ceftriaxone, at a suboptimal dose of 1 mg/kg, administered i.p.) and different doses of the peptide D-Ala-p2TA, given 2 minutes after antibiotic treatment at 24 hours post infection. Under these experimental conditions (see FIG. 18), non-treated mice died rapidly, starting at day 2, and by day 3, all animals were already dead. Antibiotic treatment alone did provide a minor change in survival, bringing it to 20%.

[1] = in vivo

H-D-Ala-Ser-Pro-Met-Leu-[U-^14C]Val-Ala-Tyr-Asp-D-Ala-OH [[^14C]-D-Ala-p2TA]
time of peak accumulation in lymphatic organs (lymph nodes) (5 mg/kg single i.v., radioactivity): 20 min
ratio of lymph nodes to plasma (4 minutes post infusion): greater than 1
ratio of radioactivity in spleen compared to plasma (20 min after injection): 6 fold
levels in lymph nodes vs plasma (20 minutes): 22 fold
levels in lymph nodes vs plasma (24 hours post dosing): greater than 3 fold
ratio of radioactivity in spleen compared to plasma (24 hours post injection): 3 fold
levels in lymph nodes vs plasma (for 2 hours): more than 5 fold
start of accumulation in lymphatic organs (post injection, 5 mg/kg single i.v.): 4 min

COc1c(N2C[C@@H]3CCCN[C@@H]3C2)c(F)cc2c(=O)c(C(=O)O)cn(C3CC3)c12 [moxifloxacin]
survival rate (polymicrobial infection): 22%

CO/N=C(\C(=O)N[C@@H]1C(=O)N2C(C(=O)[O-])=C(C[N+]3(C)CCCC3)CS[C@H]12)c1csc(N)n1 [cefepime]
overall survival (E. coli strain 018:K1; cefepime alone, suboptimal 5 mg/kg i.m. 4 hours after challenge): 20%

CO/N=C(\C(=O)N[C@@H]1C(=O)N2C(C(=O)O)=C(CSc3nc(=O)c(=O)[nH]n3C)CS[C@H]12)c1csc(N)n1 [ceftriaxone]
survival (S. pyogenes): 70%
survival (Streptococcus pneumoniae): 20%

[dA]ASMDYPVL[dA] [scrambled peptide]
survival rate (E. coli strain 018:K1; scrambled peptide control): comparable to the saline treated control

CSCC[C@H](NC(=O)[C@@H]1CCCN1C(=O)[C@@H](N)CO)C(=O)N[C@@H](CC(C)C)C(=O)N[C@H](C(=O)N[C@@H](C)C(=O)N[C@@H](Cc1ccc(O)cc1)C(=O)N[C@@H](CC(=O)O)C(=O)O)C(C)C [p2TA, SPMLVAYD]
half-life [1]: 1 to 2.6 min
